The structures appear in SMILES notation.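 All cell lines were grown in 96-well plates and treated with compound for 48 hours. GI50 = concentration required for 50% inhibition of growth.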 Calls of active or inactive are those of the source. Rule as the data show it: active = GI50 up to about 1.1 µM and inactive = higher.

Some test systems named below: A498; DU-145; HCC 2998; HOP-62; HOP-92; HT-29; KM12; MCF7; MDA-N; NCI-H460; NCI/ADR-RES; OVCAR-3; OVCAR-4; OVCAR-8; PC-3; RPMI-8226; SK-MEL-28; SK-MEL-2; SK-OV-3; U-251.
Assay in all cases: NCI tumour cell line growth inhibition, 48 h

Regarding `O=C1C(=C(I)I)c2ccccc2-c2ccccc21`, the GI50 in the experiment on A498 is 16.6 µM (inactive); in the experiment with DU-145 it was 3.67 µM (inactive); in the experiment with HCC 2998, 2.51 µM (inactive); in the experiment with HOP-62, 11.9 µM (inactive); with HOP-92, 2.26 µM (inactive); in the experiment with HT-29, 3.21 µM (inactive). Also, the GI50 in the experiment on KM12 was 12 µM (inactive); with MCF7 it was 3.59 µM (inactive); in the experiment on MDA-N it was 2 µM (inactive); in the experiment on NCI-H460 it was 14.6 µM (inactive); in the experiment with NCI/ADR-RES, 3.24 µM (inactive); in the experiment with OVCAR-3 it was 1.74 µM (inactive). Besides, the GI50 is 2.98 µM (inactive) with OVCAR-4; 2.59 µM (inactive) in the experiment with OVCAR-8; 3.71 µM (inactive) in the experiment with PC-3; 0.53 µM (active) in the experiment on RPMI-8226; 2.59 µM (inactive) in the experiment with SK-MEL-28; 6.31 µM (inactive) in the experiment on SK-MEL-2. Further, the values for the GI50 in the experiment with SK-OV-3 and in the experiment with U-251 were 14.8 µM (inactive) and 5.45 µM (inactive), respectively.

Turning to `COc1ccc(-c2nc(N)n(C)c2SSc2c(-c3ccc(OC)cc3)nc(N)n2C)cc1`, the GI50 with A498 was 7.64 µM (inactive); in the experiment on DU-145 it was 17.3 µM (inactive); in the experiment with HCC 2998 it was 17.8 µM (inactive); with HOP-62, 17.5 µM (inactive); in the experiment on HOP-92, 2.28 µM (inactive); in the experiment with HT-29, 9.59 µM (inactive). Also, the GI50 is 12.9 µM (inactive) in the experiment on KM12; 8.51 µM (inactive) with MCF7; 2.63 µM (inactive) in the experiment with MDA-N; 20.8 µM (inactive) with NCI-H460; 14.2 µM (inactive) in the experiment with NCI/ADR-RES; 7.23 µM (inactive) in the experiment with OVCAR-3. Besides, the GI50 with OVCAR-4 is 6.59 µM (inactive); in the experiment with OVCAR-8 it was 5.81 µM (inactive); with PC-3 it was 6.34 µM (inactive); with RPMI-8226, 2.69 µM (inactive); in the experiment on SK-MEL-28, 3.61 µM (inactive); in the experiment with SK-MEL-2, 15.6 µM (inactive). Besides, the values for the GI50 with SK-OV-3 and in the experiment on U-251 were 18.6 µM (inactive) and 13 µM (inactive), respectively.

`C=CCOc1ccc(C2(c3ccc(OCC=C)cc3)C(=O)Nc3ccccc32)cc1`: the GI50 in the experiment on A498, in the experiment on DU-145, in the experiment with HCC 2998, in the experiment on HOP-62, in the experiment on HOP-92 and in the experiment with HT-29 was > 10 µM (inactive) in each case. In addition, the GI50 in the experiment with KM12 was > 10 µM (inactive); in the experiment on MCF7 it was 8.57 µM (inactive); with MDA-N, > 10 µM (inactive); in the experiment with NCI-H460, > 10 µM (inactive); in the experiment with NCI/ADR-RES, > 10 µM (inactive); with OVCAR-3, > 10 µM (inactive). Also, the GI50 with OVCAR-4 was 3.4 µM (inactive); in the experiment with OVCAR-8, > 10 µM (inactive); in the experiment with PC-3, > 10 µM (inactive); in the experiment on RPMI-8226, > 10 µM (inactive); in the experiment with SK-MEL-28 it was > 10 µM (inactive); with SK-MEL-2, > 10 µM (inactive). Also, the GI50 with SK-OV-3 and in the experiment on U-251 was > 10 µM (inactive) each time.

Turning to `CCCCN1C(=O)c2c(-c3sccc3N)sc(-c3sccc3N)c2C1=O`, the GI50 is 23.4 µM (inactive) in the experiment on A498; 21.4 µM (inactive) with DU-145; 73.6 µM (inactive) in the experiment on HCC 2998; 14.7 µM (inactive) in the experiment on HOP-62; 52 µM (inactive) in the experiment with HOP-92; 14.2 µM (inactive) in the experiment on HT-29. In addition, the GI50 was 44.6 µM (inactive) in the experiment with KM12; 11.2 µM (inactive) in the experiment with MCF7; 4.94 µM (inactive) in the experiment with MDA-N; 26.1 µM (inactive) in the experiment on NCI-H460; 21.3 µM (inactive) in the experiment on NCI/ADR-RES; 16 µM (inactive) with OVCAR-3. Further, the GI50 with OVCAR-4 is 10.9 µM (inactive); in the experiment with OVCAR-8, 12.3 µM (inactive); with PC-3, 14.8 µM (inactive); in the experiment on RPMI-8226, 4.47 µM (inactive); in the experiment on SK-MEL-28, 7.98 µM (inactive); with SK-MEL-2, 32.7 µM (inactive). The GI50 in the experiment with SK-OV-3 was 10.6 µM (inactive); in the experiment with U-251, 12.9 µM (inactive).

For the molecule `CSc1nnnc2ccccc12`, the GI50 in the experiment on A498, in the experiment on DU-145, in the experiment on HCC 2998, in the experiment on HOP-62, in the experiment on HOP-92 and in the experiment on HT-29 was > 100 µM (inactive) each time. The GI50 was > 100 µM (inactive) in the experiment with KM12; 51.4 µM (inactive) in the experiment on MCF7; > 100 µM (inactive) in the experiment with MDA-N; > 100 µM (inactive) with NCI-H460; > 100 µM (inactive) in the experiment on NCI/ADR-RES; > 100 µM (inactive) in the experiment on OVCAR-3. Moreover, the GI50 in the experiment with OVCAR-4, with OVCAR-8, with PC-3, with RPMI-8226, with SK-MEL-28 and in the experiment on SK-MEL-2 was > 100 µM (inactive) in each case. Besides, the GI50 in the experiment with SK-OV-3 and in the experiment with U-251 was > 100 µM (inactive) throughout.

As for `C=CCOc1cccc(C2(O)c3ccccc3C3=NCCCN32)c1` (stereo not given), the GI50 in the experiment with A498 is 21.8 µM (inactive); with DU-145, 41.2 µM (inactive); with HCC 2998 it was 14.5 µM (inactive); in the experiment with HOP-62, 6.84 µM (inactive); with HOP-92 it was 21.8 µM (inactive); in the experiment on HT-29 it was 8.57 µM (inactive). Besides, the GI50 is 7.48 µM (inactive) with KM12; 16.8 µM (inactive) in the experiment on MCF7; 17.1 µM (inactive) in the experiment on MDA-N; 16.8 µM (inactive) with NCI-H460; > 35.2 µM (inactive) in the experiment with NCI/ADR-RES; 1.25 µM (inactive) with OVCAR-3. The GI50 is 15.5 µM (inactive) in the experiment on OVCAR-4; 14.4 µM (inactive) in the experiment on OVCAR-8; 10.3 µM (inactive) in the experiment on PC-3; 15.2 µM (inactive) in the experiment with RPMI-8226; 5.51 µM (inactive) in the experiment with SK-MEL-28; 1.72 µM (inactive) with SK-MEL-2. In addition, the GI50 in the experiment with SK-OV-3 was 37.7 µM (inactive); in the experiment on U-251, 15.6 µM (inactive).

For the molecule `N=C(N)SCc1cc(Cl)cc(Cl)c1O`, the GI50 in the experiment with A498 is 22.3 µM (inactive); in the experiment with DU-145, 17.6 µM (inactive); in the experiment with HCC 2998, 17.7 µM (inactive); in the experiment on HOP-62, 18.8 µM (inactive); in the experiment on HOP-92, 15.7 µM (inactive); with HT-29 it was 16 µM (inactive). In addition, the GI50 was 18.4 µM (inactive) in the experiment on KM12; 25.2 µM (inactive) in the experiment with MCF7; 16.4 µM (inactive) in the experiment with MDA-N; 18.1 µM (inactive) in the experiment on NCI-H460; 26.2 µM (inactive) with NCI/ADR-RES; 17.2 µM (inactive) in the experiment with OVCAR-3. Moreover, the GI50 with OVCAR-4 was 23.3 µM (inactive); with OVCAR-8, 18.3 µM (inactive); in the experiment on PC-3, 19.3 µM (inactive); in the experiment on RPMI-8226, 19.8 µM (inactive); in the experiment on SK-MEL-28 it was 22.6 µM (inactive); in the experiment on SK-MEL-2 it was 18.2 µM (inactive). Further, the GI50 is 36.1 µM (inactive) with SK-OV-3 and 15.7 µM (inactive) with U-251.

Values taken from ChEMBL document CHEMBL1201862, “PubChem BioAssay data set” (2004).
